Assay results: patent US9402847B2, “Combinations comprising (S)-4-amino-N-(1-(4-chlorophenyl)-3-hydroxypropyl)-1-(7H-pyrrolo[2,3-d]pyrimidin-4-yl)piperidine-4-carboxamide” (AstraZeneca AB, priority 2011, dated 2016)

Key:
BT474c model = assay: BT474c tumour xenograft in nude mice, tumour volume by calipers; format: in vivo
Procedure: (§1) Tumour cells were implanted subcutaneously into the flank of nude mice, then a tumour was allowed to grow in each mouse until it reached the desired starting volume for the particular experiment (approximately 0.6 cm^3 for the BT474c experiment, and approximately 0.15 cm^3 for the HCC-1187 experiment). The mice were then randomised into groups—each group destined to receive one of the four treatment regimes described in each of FIGS. 1 and 2. The mice were then dosed as described in FIGS. 1 and 2, where docetaxel was administered intravenously, and Compound (I) (as the free base) was administered orally. Calipers were used to monitor tumour sizes during these experiments, and the results are plotted on the graphs of FIGS. 1 and 2.
(§2) The BT-474 tumour cell line (human mammary carcinoma) was obtained from Dr Jose Baselga (at Laboratorio Recerca Oncologica, Paseo Vall D'Hebron 119-129, Barcelona 08035, Spain). This cell line was subcloned and a certain population referred herein to as BT474c was obtained. The HCC-1187 cell line is available from ATCC (www.atcc.org).

[1] = system: HCC-1187 breast cancer xenografts; assay: HCC-1187 breast cancer xenografts in nude mice, tumour volume by calipers; format: in vivo; conditions: for efficacy of combination versus docetaxel monotherapy: AZD5363 300 mg/kg once daily, 4 days on, 3 days off, 3 weekly cycles
Procedure: In these experiments the indicated agent(s) where being administered in 2 weekly dosage cycles, then there was no dosing in the 3rd week (days 15-21 inclusive). The indicated agent(s) were again administered in further weekly dosage cycles from week 4 onwards.
Animals were dosed with compounds over a 3 week period (3 weekly cycles of docetaxel and 3 weekly cycles of AZD5363 300 mg/kg once daily, 4 days on, 3 days off). […] Following the 3 weekly cycles of treatment, animals were not treated with compound, and recovery of tumour growth was monitored.
as §1, §2

For `NC1(C(=O)N[C@@H](CCO)c2ccc(Cl)cc2)CCN(c2ncnc3[nH]ccc23)CC1` [Compound (I), (S)-4-amino-N-(1-(4-chlorophenyl)-3-hydroxypropyl)-1-(7H-pyrrolo[2,3-d]pyrimidin-4-yl)piperidine-4-carboxamide], the sensitisation to docetaxel (BT474c model; BT474c model, single dose of docetaxel) was “greatly sensitise”, the “effect at regulating tumour volume, combination compared with either component alone” value (BT474c model; Compound (I) in combination with docetaxel) was “more than an additive effect” and the “change in tumour volume” value (BT474c model; FIG. 1, BT474c model, 16-day period, Compound (I) free base orally in combination with docetaxel intravenously) was “significant tumour shrinkage”. The “antitumour activity, intermittent versus continuous schedule of Compound (I)” value ([1]; FIG. 2, HCC-1187 model, 55-day period, in combination with weekly cycles of docetaxel) was “similarly sustained antitumour activity”, the “efficacy of combination versus docetaxel monotherapy” value ([1]; FIG. 3, docetaxel administered 24 hours after the final dose of AZD5363) was “antagonistic” and the “efficacy of combination versus docetaxel monotherapy” value ([1]; FIG. 3, docetaxel dosed 1 hour (same day) before first administration of AZD5363) was “greater efficacy than docetaxel monotherapy”. For the same compound, the “efficacy of combination versus docetaxel monotherapy” value ([1]; FIG. 3, docetaxel dosed 24 hours (day before) before first administration of AZD5363) was “greater efficacy than docetaxel monotherapy” and the “tumour growth delay after the 3 weekly cycles of treatment” value ([1]; FIG. 3, docetaxel administered 1 hour before AZD5363, compared with the other schedules investigated) was “longest tumour growth delay”.
